Laboratory results as given in ChEMBL document CHEMBL4804284.

What was measured:
Set-up in all cases: scale not given: the % may be the effect or the level left
[1] = target: Serine/threonine-protein kinase 17B (Homo sapiens) (UniProt O94768); assay: Inhibition of DNA-tagged human DRAK2 assessed as percent of control at 50000 nM by qPCR analysis relative to control
[2] = target: Wee1-like protein kinase (Homo sapiens) (UniProt P30291); assay: Inhibition of DNA-tagged human WEE1 assessed as percent of control at 50000 nM by qPCR analysis relative to control
[3] = tested on: Serine/threonine-protein kinase B-raf (Homo sapiens), P15056 [V600E]; assay: Inhibition of DNA-tagged human BRAF V600E mutant assessed as percent of control at 50000 nM by qPCR analysis relative to control
[4] = target: Casein kinase II subunit alpha (Homo sapiens) (UniProt P68400); assay: Inhibition of DNA-tagged human CSNK2A1 assessed as percent of control at 50000 nM by qPCR analysis relative to control
[5] = target: Cyclin-dependent kinase 14 (Homo sapiens) (UniProt O94921); assay: Inhibition of DNA-tagged human PFTK1 assessed as percent of control at 50000 nM by qPCR analysis relative to control
[6] = target: Phosphatidylinositol 4-kinase beta (Homo sapiens) (UniProt Q9UBF8); assay: Inhibition of DNA-tagged human PIK4CB assessed as percent of control at 50000 nM by qPCR analysis relative to control
[7] = target: Cyclin-dependent kinase 2 homolog (Plasmodium falciparum (isolate K1 / Thailand)) (UniProt Q07785); assay: Inhibition of DNA-tagged Plasmodium falciparum PFPK5 assessed as percent of control at 50000 nM by qPCR analysis relative to control
[8] = target: Activin receptor type-1 (Homo sapiens) (UniProt Q04771); assay: Inhibition of DNA-tagged human ACVR1 assessed as percent of control at 50000 nM by qPCR analysis relative to control
[9] = target: Mitogen-activated protein kinase kinase kinase 12 (Homo sapiens) (UniProt Q12852); assay: Inhibition of DNA-tagged human DLK assessed as percent of control at 50000 nM by qPCR analysis relative to control
[10] = target: Cyclin-dependent kinase 9 (Homo sapiens) (UniProt P50750); assay: Inhibition of DNA-tagged human CDK9 assessed as percent of control at 50000 nM by qPCR analysis relative to control
[11] = target: Death-associated protein kinase 2 (Homo sapiens) (UniProt Q9UIK4); assay: Inhibition of DNA-tagged human DAPK2 assessed as percent of control at 50000 nM by qPCR analysis relative to control
[12] = target: Dual specificity protein kinase CLK4 (Homo sapiens) (UniProt Q9HAZ1); assay: Inhibition of DNA-tagged human CLK4 assessed as percent of control at 50000 nM by qPCR analysis relative to control
[13] = target: Serine/threonine-protein kinase Nek2 (Homo sapiens) (UniProt P51955); assay: Inhibition of DNA-tagged human NEK2 assessed as percent of control at 50000 nM by qPCR analysis relative to control
[14] = target: Tyrosine-protein kinase Lck (Homo sapiens) (UniProt P06239); assay: Inhibition of DNA-tagged human LCK assessed as percent of control at 50000 nM by qPCR analysis relative to control
[15] = target: Mitogen-activated protein kinase kinase kinase 7 (Homo sapiens) (UniProt O43318); assay: Inhibition of DNA-tagged human TAK1 assessed as percent of control at 50000 nM by qPCR analysis relative to control
[16] = target: Mitogen-activated protein kinase kinase kinase 11 (Homo sapiens) (UniProt Q16584); assay: Inhibition of DNA-tagged human MLK3 assessed as percent of control at 50000 nM by qPCR analysis relative to control
[17] = target: cGMP-dependent protein kinase 2 (Homo sapiens) (UniProt Q13237); assay: Inhibition of DNA-tagged human PRKG2 assessed as percent of control at 50000 nM by qPCR analysis relative to control
[18] = target: STE20-like serine/threonine-protein kinase (Homo sapiens) (UniProt Q9H2G2); assay: Inhibition of DNA-tagged human SLK assessed as percent of control at 50000 nM by qPCR analysis relative to control
[19] = target: Bone morphogenetic protein receptor type-1B (Homo sapiens) (UniProt O00238); assay: Inhibition of DNA-tagged human BMPR1B assessed as percent of control at 50000 nM by qPCR analysis relative to control
[20] = target: Tyrosine-protein kinase receptor Tie-1 (Homo sapiens) (UniProt P35590); assay: Inhibition of DNA-tagged human TIE1 assessed as percent of control at 50000 nM by qPCR analysis relative to control
[21] = tested on: Receptor-type tyrosine-protein kinase FLT3 (Homo sapiens), P36888 [R834Q]; assay: Inhibition of DNA-tagged human FLT3 R834Q mutant assessed as percent of control at 50000 nM by qPCR analysis relative to control
[22] = target: Serine/threonine-protein kinase Sgk3 (Homo sapiens) (UniProt Q96BR1); assay: Inhibition of DNA-tagged human SGK3 assessed as percent of control at 50000 nM by qPCR analysis relative to control
[23] = target: Megakaryocyte-associated tyrosine-protein kinase (Homo sapiens) (UniProt P42679); assay: Inhibition of DNA-tagged human CTK assessed as percent of control at 50000 nM by qPCR analysis relative to control
[24] = target: Serine/threonine-protein kinase DCLK3 (Homo sapiens) (UniProt Q9C098); assay: Inhibition of DNA-tagged human DCAMKL3 assessed as percent of control at 50000 nM by qPCR analysis relative to control
[25] = target: Calcium/calmodulin-dependent protein kinase type II subunit beta (Homo sapiens) (UniProt Q13554); assay: Inhibition of DNA-tagged human CAMK2B assessed as percent of control at 50000 nM by qPCR analysis relative to control
[26] = target: Dual specificity tyrosine-phosphorylation-regulated kinase 1A (Homo sapiens) (UniProt Q13627); assay: Inhibition of DNA-tagged human DYRK1A assessed as percent of control at 50000 nM by qPCR analysis relative to control
[27] = target: Insulin-like growth factor 1 receptor (Homo sapiens) (UniProt P08069); assay: Inhibition of DNA-tagged human IGF1R assessed as percent of control at 50000 nM by qPCR analysis relative to control
[28] = target: Mitogen-activated protein kinase kinase kinase 2 (Homo sapiens) (UniProt Q9Y2U5); assay: Inhibition of DNA-tagged human MAP3K2 assessed as percent of control at 50000 nM by qPCR analysis relative to control
[29] = target: Protein kinase C delta type (Homo sapiens) (UniProt Q05655); assay: Inhibition of DNA-tagged human PRKCD assessed as percent of control at 50000 nM by qPCR analysis relative to control

Chain of Dual specificity protein kinase CLK4 (Homo sapiens) (Q9HAZ1 whole entry, looked up): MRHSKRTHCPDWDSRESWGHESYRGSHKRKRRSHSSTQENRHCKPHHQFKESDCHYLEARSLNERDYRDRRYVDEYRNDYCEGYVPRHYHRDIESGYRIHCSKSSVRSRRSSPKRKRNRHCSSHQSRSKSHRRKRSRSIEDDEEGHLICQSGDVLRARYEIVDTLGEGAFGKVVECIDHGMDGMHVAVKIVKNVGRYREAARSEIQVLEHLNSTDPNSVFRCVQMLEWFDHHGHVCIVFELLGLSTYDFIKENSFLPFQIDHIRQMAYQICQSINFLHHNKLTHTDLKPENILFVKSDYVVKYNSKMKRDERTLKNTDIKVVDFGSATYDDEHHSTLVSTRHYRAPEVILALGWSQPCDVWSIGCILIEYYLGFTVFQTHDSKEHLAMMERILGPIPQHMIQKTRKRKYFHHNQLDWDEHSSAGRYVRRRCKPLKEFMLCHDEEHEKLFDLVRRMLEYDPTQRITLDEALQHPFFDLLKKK
Chain of Mitogen-activated protein kinase kinase kinase 7 (Homo sapiens) (O43318 whole entry, looked up): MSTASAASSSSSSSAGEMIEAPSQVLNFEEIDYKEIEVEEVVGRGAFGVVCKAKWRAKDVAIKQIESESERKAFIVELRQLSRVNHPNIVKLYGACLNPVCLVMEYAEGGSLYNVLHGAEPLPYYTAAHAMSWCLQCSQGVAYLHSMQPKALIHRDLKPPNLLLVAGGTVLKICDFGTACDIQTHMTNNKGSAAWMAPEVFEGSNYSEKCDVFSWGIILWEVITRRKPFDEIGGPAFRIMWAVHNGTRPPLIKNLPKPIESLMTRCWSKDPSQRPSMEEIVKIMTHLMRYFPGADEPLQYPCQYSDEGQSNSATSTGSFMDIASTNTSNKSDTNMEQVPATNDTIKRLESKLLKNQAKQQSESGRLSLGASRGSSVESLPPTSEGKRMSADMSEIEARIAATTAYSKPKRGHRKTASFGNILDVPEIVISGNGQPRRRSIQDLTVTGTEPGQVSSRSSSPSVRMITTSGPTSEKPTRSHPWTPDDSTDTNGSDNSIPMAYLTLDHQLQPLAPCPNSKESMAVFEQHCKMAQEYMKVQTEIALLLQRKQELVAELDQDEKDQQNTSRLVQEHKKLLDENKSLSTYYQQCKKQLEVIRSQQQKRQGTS
Chain of Calcium/calmodulin-dependent protein kinase type II subunit beta (Homo sapiens) (Q13554 whole entry): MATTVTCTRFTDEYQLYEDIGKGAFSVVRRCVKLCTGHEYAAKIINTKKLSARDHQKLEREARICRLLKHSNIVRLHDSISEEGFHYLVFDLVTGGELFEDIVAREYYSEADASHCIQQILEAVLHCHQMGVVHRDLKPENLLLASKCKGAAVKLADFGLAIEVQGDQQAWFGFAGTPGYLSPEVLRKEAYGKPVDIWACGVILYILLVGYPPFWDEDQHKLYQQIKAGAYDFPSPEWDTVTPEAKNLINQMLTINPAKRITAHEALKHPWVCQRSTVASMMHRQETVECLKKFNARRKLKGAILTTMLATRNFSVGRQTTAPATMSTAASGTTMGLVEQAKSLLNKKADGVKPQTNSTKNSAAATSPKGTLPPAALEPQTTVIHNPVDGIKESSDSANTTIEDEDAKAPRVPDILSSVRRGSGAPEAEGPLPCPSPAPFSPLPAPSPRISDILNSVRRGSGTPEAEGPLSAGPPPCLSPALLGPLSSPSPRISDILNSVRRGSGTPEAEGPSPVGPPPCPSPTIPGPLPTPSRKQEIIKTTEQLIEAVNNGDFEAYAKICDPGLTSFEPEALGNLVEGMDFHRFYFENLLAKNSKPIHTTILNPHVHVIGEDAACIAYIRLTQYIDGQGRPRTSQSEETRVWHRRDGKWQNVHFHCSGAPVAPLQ
Chain of STE20-like serine/threonine-protein kinase (Homo sapiens) (Q9H2G2 whole entry, looked up): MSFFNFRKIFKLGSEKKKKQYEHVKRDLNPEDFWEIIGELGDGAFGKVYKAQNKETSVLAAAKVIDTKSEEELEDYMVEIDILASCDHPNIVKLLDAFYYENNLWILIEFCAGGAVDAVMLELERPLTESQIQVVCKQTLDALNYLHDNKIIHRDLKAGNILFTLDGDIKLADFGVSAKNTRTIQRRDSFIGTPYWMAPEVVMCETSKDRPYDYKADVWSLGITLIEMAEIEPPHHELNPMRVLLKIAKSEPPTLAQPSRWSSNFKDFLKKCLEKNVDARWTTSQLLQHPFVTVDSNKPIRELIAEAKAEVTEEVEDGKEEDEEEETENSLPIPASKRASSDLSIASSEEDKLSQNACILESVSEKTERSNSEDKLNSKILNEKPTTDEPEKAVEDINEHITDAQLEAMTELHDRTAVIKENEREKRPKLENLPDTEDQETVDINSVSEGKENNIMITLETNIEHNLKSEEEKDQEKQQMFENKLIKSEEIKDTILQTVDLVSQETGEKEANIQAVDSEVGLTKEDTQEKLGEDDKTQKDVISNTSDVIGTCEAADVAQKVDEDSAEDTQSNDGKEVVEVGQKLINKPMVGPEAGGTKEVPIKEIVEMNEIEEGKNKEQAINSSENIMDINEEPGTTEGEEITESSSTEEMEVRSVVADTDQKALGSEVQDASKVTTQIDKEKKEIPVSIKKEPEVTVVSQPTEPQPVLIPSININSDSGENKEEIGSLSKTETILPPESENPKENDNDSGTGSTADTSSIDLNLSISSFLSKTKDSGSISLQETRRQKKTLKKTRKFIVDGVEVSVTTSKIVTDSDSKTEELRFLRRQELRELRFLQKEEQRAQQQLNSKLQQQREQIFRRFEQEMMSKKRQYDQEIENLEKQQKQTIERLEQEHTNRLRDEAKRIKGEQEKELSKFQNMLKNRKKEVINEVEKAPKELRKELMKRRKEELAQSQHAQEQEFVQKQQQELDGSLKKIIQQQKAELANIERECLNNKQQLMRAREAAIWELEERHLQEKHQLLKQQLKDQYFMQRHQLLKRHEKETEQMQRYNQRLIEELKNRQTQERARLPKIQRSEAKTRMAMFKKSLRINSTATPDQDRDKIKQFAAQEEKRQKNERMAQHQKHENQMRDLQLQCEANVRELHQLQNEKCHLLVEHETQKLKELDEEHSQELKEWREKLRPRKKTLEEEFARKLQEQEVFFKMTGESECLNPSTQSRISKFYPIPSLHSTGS
Chain of Phosphatidylinositol 4-kinase beta (Homo sapiens) (Q9UBF8 2-816 limits assumed): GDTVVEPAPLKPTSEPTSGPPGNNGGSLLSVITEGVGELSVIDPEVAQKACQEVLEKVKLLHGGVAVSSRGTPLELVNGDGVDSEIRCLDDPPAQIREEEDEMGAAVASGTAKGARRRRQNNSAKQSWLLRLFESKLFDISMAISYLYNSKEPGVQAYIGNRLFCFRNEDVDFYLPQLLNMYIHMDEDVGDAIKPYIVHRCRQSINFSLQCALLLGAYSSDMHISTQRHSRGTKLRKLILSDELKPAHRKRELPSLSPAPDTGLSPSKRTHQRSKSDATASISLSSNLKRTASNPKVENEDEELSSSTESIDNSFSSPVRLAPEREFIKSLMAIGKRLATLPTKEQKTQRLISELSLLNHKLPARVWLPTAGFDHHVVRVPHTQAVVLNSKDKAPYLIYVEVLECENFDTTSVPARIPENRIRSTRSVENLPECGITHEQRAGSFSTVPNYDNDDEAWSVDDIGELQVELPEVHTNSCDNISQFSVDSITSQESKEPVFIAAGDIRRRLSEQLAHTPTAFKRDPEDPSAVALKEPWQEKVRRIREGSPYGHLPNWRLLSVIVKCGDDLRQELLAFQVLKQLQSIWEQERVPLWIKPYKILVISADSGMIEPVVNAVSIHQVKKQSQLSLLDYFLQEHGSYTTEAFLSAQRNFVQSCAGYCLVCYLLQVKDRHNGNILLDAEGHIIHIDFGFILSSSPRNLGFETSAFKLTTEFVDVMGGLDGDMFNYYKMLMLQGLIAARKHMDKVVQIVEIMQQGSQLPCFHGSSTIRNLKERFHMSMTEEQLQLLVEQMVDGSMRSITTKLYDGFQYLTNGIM
Chain of Casein kinase II subunit alpha (Homo sapiens) (P68400 whole entry, looked up): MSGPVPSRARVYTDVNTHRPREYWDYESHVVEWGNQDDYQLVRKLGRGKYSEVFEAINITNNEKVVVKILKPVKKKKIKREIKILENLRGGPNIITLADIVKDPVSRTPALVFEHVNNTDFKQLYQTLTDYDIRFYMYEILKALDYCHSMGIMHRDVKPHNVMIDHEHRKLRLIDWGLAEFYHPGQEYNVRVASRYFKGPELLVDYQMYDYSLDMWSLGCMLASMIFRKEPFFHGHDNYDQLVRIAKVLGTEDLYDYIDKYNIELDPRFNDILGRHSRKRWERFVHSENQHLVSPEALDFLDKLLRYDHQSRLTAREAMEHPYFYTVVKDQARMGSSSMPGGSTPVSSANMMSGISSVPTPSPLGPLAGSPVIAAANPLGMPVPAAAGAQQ
Chain of Mitogen-activated protein kinase kinase kinase 11 (Homo sapiens) (Q16584 whole entry, looked up): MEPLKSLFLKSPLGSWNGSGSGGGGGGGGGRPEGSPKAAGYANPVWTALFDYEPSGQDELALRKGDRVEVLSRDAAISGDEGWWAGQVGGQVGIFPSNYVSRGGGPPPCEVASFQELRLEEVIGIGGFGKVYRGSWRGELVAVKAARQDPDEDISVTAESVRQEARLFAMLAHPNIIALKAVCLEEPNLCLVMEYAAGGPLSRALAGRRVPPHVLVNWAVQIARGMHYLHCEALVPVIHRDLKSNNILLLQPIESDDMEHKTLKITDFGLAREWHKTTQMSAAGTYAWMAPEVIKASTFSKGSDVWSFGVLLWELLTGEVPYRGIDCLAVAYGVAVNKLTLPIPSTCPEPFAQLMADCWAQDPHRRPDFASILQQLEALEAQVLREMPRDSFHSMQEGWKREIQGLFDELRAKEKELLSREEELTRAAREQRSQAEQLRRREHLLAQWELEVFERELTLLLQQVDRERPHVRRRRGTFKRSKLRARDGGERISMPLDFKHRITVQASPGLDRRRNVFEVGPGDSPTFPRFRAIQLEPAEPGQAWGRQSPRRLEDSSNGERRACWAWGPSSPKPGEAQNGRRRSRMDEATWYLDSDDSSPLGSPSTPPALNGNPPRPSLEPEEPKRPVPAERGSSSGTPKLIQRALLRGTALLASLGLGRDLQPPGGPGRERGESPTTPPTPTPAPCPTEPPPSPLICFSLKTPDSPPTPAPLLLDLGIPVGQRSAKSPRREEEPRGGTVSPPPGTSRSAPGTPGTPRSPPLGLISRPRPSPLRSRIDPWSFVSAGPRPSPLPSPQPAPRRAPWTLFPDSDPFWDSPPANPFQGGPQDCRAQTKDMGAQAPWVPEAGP

## CN1C(=O)/C(=C2/C(=O)Nc3ccccc32)c2ccccc21
[1]
  Activity: 100%
[2]
  Activity: 91%
[3]
  Activity: 72%
[4]
  Activity: 79%
[5]
  Activity: 94%
[6]
  Activity: 100%
[7]
  Activity: 72%
[8]
  Activity: 99%
[9]
  Activity: 100%
[10]
  Activity: 84%
[11]
  Activity: 85%
[12]
  Activity: 100%
[13]
  Activity: 100%
[14]
  Activity: 96%
[15]
  Activity: 78%
[16]
  Activity: 71%
[17]
  Activity: 94%
[18]
  Activity: 100%
[19]
  Activity: 89%
[20]
  Activity: 88%
[21]
  Activity: 100%
[22]
  Activity: 68%
[23]
  Activity: 56%
[24]
  Activity: 99%
[25]
  Activity: 86%
[26]
  Activity: 100%
[27]
  Activity: 100%
[28]
  Activity: 99%
[29]
  Activity: 100%
